In publication PMC11540889, “In Vitro Cytotoxicity of Fluorinated Quaternary Ammonium Salts in Colorectal Cancer Cells and In Silico Pharmacology” (Advances in Pharmacological and Pharmaceutical Sciences, 2024):

Key:
[1] = tested on: SW948 (Dukes' Type C, Grade III, premetastatic colorectal adenocarcinoma); assay: MTT cytotoxicity, SW948 cells; conditions: for CC50: Homo sapiens, SW948, 48 h, SW948 cells, MTT, 48 h, mean ± SD; for Index of selectivity MCRT / SW948: IS = CC50 MCRT ÷ CC50 SW948; for Index of selectivity PBMC / SW948: IS = CC50 PBMC ÷ CC50 SW948
Method: (§1) The compounds were solubilized in dimethyl sulfoxide (DMSO, Fischer Chemical, NJ, USA) at 50,000 μg/mL and stored at −20°C until use. From the stock solution, six serial 1:2 double dilutions of each compound were prepared to start with concentrations of 100, 50, 25, 12.5, 6.25, and 3.125 μg/mL, respectively. 5-FU, one of the conventional drugs to treat CRC [34], was used as an antitumor compound control at concentrations ranging between 800 and 0.625 μM.
(§2) SW948 (Dukes' Type C, Grade III, premetastatic colorectal adenocarcinoma—CCL-237), SW48 (Dukes' Type C, Grade IV, noninvasive colorectal adenocarcinoma—CCL231), and SW620 (Dukes' Type C, Grade IV invasive colorectal adenocarcinoma—CCL227) (American Type Culture Collection Manassas, VA, USA) were maintained in standard conditions at 37°C, without a CO2 atmosphere. PBMCs and MCRT were used as nontumoral control cells. PBMCs were obtained by healthy donors, separated using Histopaque-1077 (Sigma-Aldrich) and cultured in RPMI-1640 medium (Sigma-Aldrich) supplemented with 10% SFB and 1% penicillin/streptomycin [46]. In turn, MCRT were obtained from healthy BALB/c mice; for this, mice were euthanized with CO2 after previous sedation, the colorectal tissue removed, cleaned up, and cut into 2 × 2 mm pieces, suspended in supplemented DMEM, and used immediately after collection. […] Moreover, the inclusion of PBMC also served to assess the systemic toxicity of FQAS.
(§3) The cytotoxic activity of synthesized FQASs and QASs was studied by measuring cell viability/mortality, determined with the MTT (3-(4,5-dimethylthiazol-2-yl)-2,5-diphenyl tetrazole bromide) method (VWR Chemicals and Reagents Avantor), upon exposure of each cell line to six serial dilutions of the different compounds independently. Unexposed cells were included as viability controls, and cells exposed to 5-FU were included as cytotoxicity controls. Briefly, cells were adjusted to 200,000 cells/mL in the corresponding supplemented culture medium, and 100 μL (20,000 cells/well) were dispensed into each 96-well cell culture plate (Nunc, Thermo Fisher Scientific). Twelve hours after seeding the monolayer, 100 μL dilution of each compound was added to each well; the plates containing CRC were incubated at 37°C in the absence of CO2, while plates with PBMCs and MCRT were incubated at 37°C and 5% CO2 atmosphere. For MCRT, each piece was placed into each well of a 96-well plate and exposed to each dilution of the FQASs and QASs. After 48 h of incubation, 30 μL/well of MTT (5 mg/mL) was added, and plates were left at 37°C for 3 h, protected from light. After this time, 100 μL/well of DMSO was added to solubilize the formazan crystals formed. Plates were read at 570 nm on a Varioskan plate reader (Thermo Fisher), and nonspecific absorbance was corrected by subtracting the optical densities (OD) of the blank solutions corresponding to the supplemented culture media (RPMI 1640, DMEM, or L-15 media) and 0.5% DMSO. Each concentration of the FQASs, QASs, and controls was evaluated in duplicate in three independent experiments.
(§4) The percentages of viability (equation (1)) and mortality (equation (2)) were calculated with the net OD:(1) % viability=OD treated cell÷nontreated cells×100, (2) % mortality=100−% viability.
(§5) The %mortality data for each compound concentration was recorded, and the median cytotoxic concentration (CC50), corresponding to the concentration at which 50% of cell death occurs, was calculated using GraphPad Prism 8 software (GraphPad, Software, Inc., La Jolla, CA, USA). […] Lastly, the index of selectivity (IS) was calculated by dividing the CC50 value obtained for control cells (MCRT and PBMCs) by the CC50 value obtained for each CRC cell phenotype using the formula: IS = CC50 (MCRT or PBMC) ÷ CC50 (SW948, SW48 or SW620).

[2] = tested on: SW48 (Dukes' Type C, Grade IV, noninvasive colorectal adenocarcinoma); assay: MTT cytotoxicity, SW48 cells; conditions: for CC50: SW48 cells, MTT, 48 h, mean ± SD; for Index of selectivity MCRT / SW48: IS = CC50 MCRT ÷ CC50 SW48; for Index of selectivity PBMC / SW48: IS = CC50 PBMC ÷ CC50 SW48
Method: as §1, §2, §3, §4, §5

[3] = tested on: SW620 (Dukes' Type C, Grade IV invasive colorectal adenocarcinoma); assay: MTT cytotoxicity, SW620 cells; conditions: for CC50: Homo sapiens, 48 h; for Index of selectivity MCRT / SW620: IS = CC50 MCRT ÷ CC50 SW620; for Index of selectivity PBMC / SW620: IS = CC50 PBMC ÷ CC50 SW620
Method: as §1, §2, §3, §4, §5

[4] = Ex vivo MTT cytotoxicity, healthy murine colorectal tissue; assay type: cell-based, BALB/c mice; conditions: BALB/c, mouse, healthy murine colorectal tissue (MCRT) pieces, ex vivo, nontumoral control, MTT, 48 h, mean ± SD
Method: as §1, §2, §3, §4, §5

[5] = MTT cytotoxicity, peripheral blood mononuclear cells; assay type: cell-based; conditions: human, peripheral blood mononuclear cells (PBMC); PBMC, nontumoral control, MTT, 48 h, mean ± SD
Method: as §1, §2, §3, §4, §5

[6] = tested on: CRC cell lines SW48, SW620, and SW948; assay: MTT cytotoxicity across CRC cell lines (pooled statements, selectivity between lines); assay type: cell-based; conditions: for Index of selectivity SW48 vs. SW620: IS = CC50 SW48 ÷ CC50 SW620; for Index of selectivity SW948 vs. SW48: IS = CC50 SW948 ÷ CC50 SW48; for Index of selectivity SW948 vs. SW620: IS = CC50 SW948 ÷ CC50 SW620
Method: as §1, §2, §3, §4
The %mortality data for each compound concentration was recorded, and the median cytotoxic concentration (CC50), corresponding to the concentration at which 50% of cell death occurs, was calculated using GraphPad Prism 8 software (GraphPad, Software, Inc., La Jolla, CA, USA). […]

[7] = tested on: healthy murine colorectal tissue (MCRT); assay: Ex vivo MTT cytotoxicity, healthy murine colorectal tissue; assay type: cell-based, BALB/c mice
Method: as §1, §2, §3, §4, §5

[8] = tested on: peripheral blood mononuclear cells (PBMC); assay: MTT cytotoxicity, peripheral blood mononuclear cells; assay type: cell-based; conditions: PBMCs
Method: as §1, §2, §3, §4, §5

Structure (SMILES) | CC50 [1] [µM] | Index of selectivity MCRT / SW948 [1] | Index of selectivity PBMC / SW948 [1] | CC50 ([2]; Homo sapiens, SW48, 48 h) [µM] | Index of selectivity MCRT / SW48 [2] | Index of selectivity PBMC / SW48 [2] | CC50 [3] [µM] | Index of selectivity MCRT / SW620 [3] | Index of selectivity PBMC / SW620 [3] | CC50 at 48 h [4] [µM] | CC50 at 48 h [5] [µM] | Index of selectivity SW48 vs. SW620 [6] | Index of selectivity SW948 vs. SW48 [6] | Index of selectivity SW948 vs. SW620 [6] | cytotoxicity level (high/moderate/low) [1] | cytotoxicity level (high/moderate/low) [2] | cytotoxicity level (high/moderate/low) [3] | CC50 [2] [µM] | cytotoxicity in words [7] | cytotoxicity in words [8]
C[N+](C)(C)CCCC=C(c1ccc(C(F)(F)F)cc1)c1ccc(C(F)(F)F)cc1 [Compound 10] | 13.4 ± 3.9 | 8.9 | 3.8 | 44 ± 6 | 2.7 | 1.2 | 18.8 ± 4.7 | 6.4 | 2.7 | 119 ± 8.7 | 51.4 ± 5.3 | 2.3 | 0.3 | 0.7 |  |  |  |  |  | 
C[N+](C)(CI)CCCCC=C(c1cccc(C(F)(F)F)c1)c1cccc(C(F)(F)F)c1 [Compound 11] | 21.5 ± 4.5 | 4.4 | 1.6 | 22.1 ± 4 | 4.2 | 1.5 | 18.1 ± 3.7 | 5.2 | 1.9 | 93.5 ± 13.9 | 33.4 ± 2 | 1.2 | 1.0 | 1.2 |  |  |  |  |  | 
C[N+](C)(CCl)CCCCC=C(c1ccc(C(F)(F)F)cc1)c1ccc(C(F)(F)F)cc1 [Compound 12] | 25 ± 4.8 | 4.4 | 1.6 | 48 ± 5.1 | 2.3 | 0.8 | 15.1 ± 1.5 | 7.3 | 2.7 | 111 ± 16.7 | 40.5 ± 9.5 | 3.2 | 0.5 | 1.7 | High | Moderate | High |  |  | 
C[N+](C)(CI)CCCCC=C(c1ccc(C(F)(F)F)cc1)c1ccc(C(F)(F)F)cc1 [Compound 13] | 26.9 ± 4 |  | 2.0 | 18.5 |  | 3.3 | 16 ± 1.5 |  | 3.4 | > 293 | 53.9 ± 3 | 1.0 | 1.7 | 1.7 |  |  |  | 16.3 ± 2 |  | 
C[N+](C)(C)CCCCC=C(c1ccc(C(F)(F)F)cc1)c1ccc(C(F)(F)F)cc1 [Compound 14] | 49 ± 11.1 | 8.6 | 1.9 | 16.3 | 22.7 | 5.0 | 14.5 ± 2.9 | 28.9 | 6.4 | 419 ± 15 | 93.2 ± 13.1 | 1.3 | 2.6 | 3.4 |  |  |  | 18.5 ± 3.6 |  | 
C[N+](C)(CI)CCCC=C(c1ccccc1)c1ccccc1 [Compound 15] | 98.2 ± 4.3 | 2.6 | 0.3 | 124 ± 2.3 | 2.1 | 0.2 | 158 ± 2.3 | 1.6 | 0.2 | 256 ± 14 | 29.3 ± 1.4 | 0.8 | 0.8 | 0.6 |  |  |  |  | moderate cytotoxicity | highly cytotoxic
C[N+](C)(CI)CCCCC=C(c1ccccc1)c1ccccc1 [Compound 16] | 71 ± 12.4 | 1.9 | 0.6 | 65.2 ± 3.7 | 2.1 | 0.6 | 72.9 ± 4.2 | 1.9 | 0.5 | 135 ± 11.8 | 38.8 ± 5.6 | 0.9 | 1.1 | 1.0 |  |  |  |  | noncytotoxic | highly cytotoxic
